Experimental data: the kinase profiling compilation of Christmann-Franck et al. (2016)

Legend:
Assay in all cases: radiometric filter-binding kinase assay
[1] = tested on: AKT1 (human), P31749 [S473D]
AURKA (human) = AURKA (human) (UniProt O14965)
BRSK1 (human) = BRSK1 (human) (UniProt Q8TDC3)
BRSK2 (human) = BRSK2 (human) (UniProt Q8IWQ3)
BTK (human) = BTK (human) (UniProt Q06187)
CSK (human) = CSK (human) (UniProt P41240)
CSNK1D (human) = CSNK1D (human) (UniProt P48730)
EEF2K (human) = EEF2K (human) (UniProt O00418)
EPHA4 (human) = EPHA4 (human) (UniProt P54764)
ERBB4 (human) = ERBB4 (human) (UniProt Q15303); settings: compound 10.0 µM
FGFR1 (human) = FGFR1 (human) (UniProt P11362); settings: compound 10.0 µM
GSK3B (human) = GSK3B (human) (UniProt P49841); settings: compound 10.0 µM
HIPK1 (human) = HIPK1 (human) (UniProt Q86Z02)
IKBKB (human) = IKBKB (human) (UniProt O14920)
MAP2K2 (human) = MAP2K2 (human) (UniProt P36507)
MAP2K6 (human) = MAP2K6 (human) (UniProt P52564)
MAP3K1 (human) = MAP3K1 (human) (UniProt Q13233)
MAP3K5 (human) = MAP3K5 (human) (UniProt Q99683)
MAPK15 (human) = MAPK15 (human) (UniProt Q8TD08)
MAPK3 (human) = MAPK3 (human) (UniProt P27361)
MAPK8 (human) = MAPK8 (human) (UniProt P45983)
MAPK9 (human) = MAPK9 (human) (UniProt P45984)
MAPKAPK3 (human) = MAPKAPK3 (human) (UniProt Q16644)
MKNK2 (human) = MKNK2 (human) (UniProt Q9HBH9)
NEK6 (human) = NEK6 (human) (UniProt Q9HC98)
[2] = tested on: PAK2 (human), Q13177 [T402E]
PAK7 (human) = PAK7 (human) (UniProt Q9P286)
PLK1 (human) = PLK1 (human) (UniProt P53350)
RPS6KA3 KD1 KD2 (human) = RPS6KA3 KD1 KD2 (human) (UniProt P51812)
RPS6KA5 KD1 KD2 (human) = RPS6KA5 KD1 KD2 (human) (UniProt O75582); settings: compound 1.0 µM
SRPK1 (human) = SRPK1 (human) (UniProt Q96SB4)
[3] = molecular target: STK11 CAB39 STRADA (human) (UniProt Q9Y376+Q7RTN6+Q15831)
TBK1 (human) = TBK1 (human) (UniProt Q9UHD2)

AKT1 (human), P31749 [S473D], sequence (P31749 whole entry S473D, looked up): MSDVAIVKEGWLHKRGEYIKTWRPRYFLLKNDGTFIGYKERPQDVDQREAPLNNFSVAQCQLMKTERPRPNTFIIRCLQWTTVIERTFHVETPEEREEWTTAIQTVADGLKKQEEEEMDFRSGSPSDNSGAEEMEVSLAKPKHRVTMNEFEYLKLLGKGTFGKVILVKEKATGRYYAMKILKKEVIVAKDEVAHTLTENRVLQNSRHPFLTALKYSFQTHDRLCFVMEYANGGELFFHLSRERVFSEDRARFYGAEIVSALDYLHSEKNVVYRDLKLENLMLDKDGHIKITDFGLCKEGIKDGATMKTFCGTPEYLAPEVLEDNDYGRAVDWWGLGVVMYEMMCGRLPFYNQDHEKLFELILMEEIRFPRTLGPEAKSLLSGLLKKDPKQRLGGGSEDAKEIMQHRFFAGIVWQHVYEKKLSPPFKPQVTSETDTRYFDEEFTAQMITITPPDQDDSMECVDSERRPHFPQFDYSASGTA
PLK1 (human), sequence (P53350 whole entry, looked up): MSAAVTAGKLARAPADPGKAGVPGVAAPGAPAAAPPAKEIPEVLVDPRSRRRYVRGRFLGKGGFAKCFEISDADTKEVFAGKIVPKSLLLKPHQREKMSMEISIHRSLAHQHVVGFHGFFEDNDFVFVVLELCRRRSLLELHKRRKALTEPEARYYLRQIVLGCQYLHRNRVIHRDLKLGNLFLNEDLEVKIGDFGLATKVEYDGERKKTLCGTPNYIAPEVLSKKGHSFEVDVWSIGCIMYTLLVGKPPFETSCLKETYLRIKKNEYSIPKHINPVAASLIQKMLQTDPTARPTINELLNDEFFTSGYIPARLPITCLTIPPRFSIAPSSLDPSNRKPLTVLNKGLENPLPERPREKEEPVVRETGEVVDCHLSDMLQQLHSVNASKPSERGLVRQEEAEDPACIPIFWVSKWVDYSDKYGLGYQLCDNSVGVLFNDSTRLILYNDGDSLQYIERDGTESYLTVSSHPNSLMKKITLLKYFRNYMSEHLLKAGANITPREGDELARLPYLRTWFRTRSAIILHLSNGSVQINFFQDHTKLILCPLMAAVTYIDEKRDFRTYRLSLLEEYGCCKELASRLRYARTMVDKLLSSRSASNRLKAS
BRSK1 (human), sequence (Q8TDC3 whole entry, looked up): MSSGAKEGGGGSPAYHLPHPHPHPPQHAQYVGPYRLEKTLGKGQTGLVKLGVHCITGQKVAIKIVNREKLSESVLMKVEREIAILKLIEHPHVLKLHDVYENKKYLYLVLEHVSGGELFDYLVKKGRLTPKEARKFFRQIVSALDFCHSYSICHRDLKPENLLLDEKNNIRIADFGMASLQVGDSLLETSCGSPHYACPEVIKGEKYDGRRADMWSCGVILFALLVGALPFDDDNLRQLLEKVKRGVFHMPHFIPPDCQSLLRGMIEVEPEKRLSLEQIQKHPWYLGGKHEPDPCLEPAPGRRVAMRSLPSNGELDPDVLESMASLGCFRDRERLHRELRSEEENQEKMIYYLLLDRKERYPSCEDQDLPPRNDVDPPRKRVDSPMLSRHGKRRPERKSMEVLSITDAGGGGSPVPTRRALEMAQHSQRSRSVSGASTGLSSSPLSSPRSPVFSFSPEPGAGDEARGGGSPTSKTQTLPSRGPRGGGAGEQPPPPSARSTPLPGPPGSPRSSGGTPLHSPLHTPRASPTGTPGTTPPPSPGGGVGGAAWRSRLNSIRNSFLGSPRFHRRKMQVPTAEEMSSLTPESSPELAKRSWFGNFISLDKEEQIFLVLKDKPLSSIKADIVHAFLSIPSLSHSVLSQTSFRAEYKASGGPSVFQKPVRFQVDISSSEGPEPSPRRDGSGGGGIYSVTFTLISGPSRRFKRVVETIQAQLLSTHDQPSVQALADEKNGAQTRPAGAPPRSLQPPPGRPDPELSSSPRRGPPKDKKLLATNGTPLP
MAPK15 (human), sequence (Q8TD08 whole entry, looked up): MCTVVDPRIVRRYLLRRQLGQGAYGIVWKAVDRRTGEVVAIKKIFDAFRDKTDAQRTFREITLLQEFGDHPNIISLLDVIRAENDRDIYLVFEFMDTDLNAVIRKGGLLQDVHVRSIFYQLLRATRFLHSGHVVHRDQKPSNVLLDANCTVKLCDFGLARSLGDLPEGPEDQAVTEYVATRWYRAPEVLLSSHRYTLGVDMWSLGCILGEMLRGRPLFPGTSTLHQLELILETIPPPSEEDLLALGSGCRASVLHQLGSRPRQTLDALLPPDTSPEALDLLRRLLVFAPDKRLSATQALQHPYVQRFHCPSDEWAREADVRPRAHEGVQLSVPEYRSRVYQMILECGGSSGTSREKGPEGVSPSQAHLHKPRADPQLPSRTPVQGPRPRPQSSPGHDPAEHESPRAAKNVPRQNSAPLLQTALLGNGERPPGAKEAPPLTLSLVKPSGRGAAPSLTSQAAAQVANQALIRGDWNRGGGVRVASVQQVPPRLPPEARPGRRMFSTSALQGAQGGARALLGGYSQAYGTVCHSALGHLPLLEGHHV
NEK6 (human), sequence (Q9HC98 whole entry, looked up): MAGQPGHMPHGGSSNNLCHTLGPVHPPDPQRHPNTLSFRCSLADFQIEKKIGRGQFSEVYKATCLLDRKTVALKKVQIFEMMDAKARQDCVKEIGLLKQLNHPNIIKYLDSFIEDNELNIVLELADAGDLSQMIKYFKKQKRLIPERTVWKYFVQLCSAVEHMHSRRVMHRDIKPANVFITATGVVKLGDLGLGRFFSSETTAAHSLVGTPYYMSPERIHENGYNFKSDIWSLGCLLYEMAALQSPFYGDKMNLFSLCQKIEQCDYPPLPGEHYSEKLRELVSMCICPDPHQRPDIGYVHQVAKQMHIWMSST
IKBKB (human), sequence (O14920 whole entry, looked up): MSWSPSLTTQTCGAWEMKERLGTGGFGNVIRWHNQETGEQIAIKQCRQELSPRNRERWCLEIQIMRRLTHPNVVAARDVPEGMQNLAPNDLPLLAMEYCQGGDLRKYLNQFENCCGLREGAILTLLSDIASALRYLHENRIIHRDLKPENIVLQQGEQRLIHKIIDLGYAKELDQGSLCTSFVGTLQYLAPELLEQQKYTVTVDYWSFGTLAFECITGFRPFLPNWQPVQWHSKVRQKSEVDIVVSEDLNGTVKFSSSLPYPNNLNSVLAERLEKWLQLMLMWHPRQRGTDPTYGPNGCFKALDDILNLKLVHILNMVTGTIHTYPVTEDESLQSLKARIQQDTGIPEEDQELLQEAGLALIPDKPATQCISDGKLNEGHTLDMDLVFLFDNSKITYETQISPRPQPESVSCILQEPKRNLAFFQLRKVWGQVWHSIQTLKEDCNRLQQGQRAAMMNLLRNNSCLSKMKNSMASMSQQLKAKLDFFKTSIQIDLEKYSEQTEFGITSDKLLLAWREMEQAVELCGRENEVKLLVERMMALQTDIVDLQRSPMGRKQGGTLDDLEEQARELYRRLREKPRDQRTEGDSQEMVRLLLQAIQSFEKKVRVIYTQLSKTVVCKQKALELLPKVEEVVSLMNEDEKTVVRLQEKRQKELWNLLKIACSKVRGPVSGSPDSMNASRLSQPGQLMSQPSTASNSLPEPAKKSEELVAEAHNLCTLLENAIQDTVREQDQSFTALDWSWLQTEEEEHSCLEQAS
AURKA (human), sequence (O14965 whole entry, looked up): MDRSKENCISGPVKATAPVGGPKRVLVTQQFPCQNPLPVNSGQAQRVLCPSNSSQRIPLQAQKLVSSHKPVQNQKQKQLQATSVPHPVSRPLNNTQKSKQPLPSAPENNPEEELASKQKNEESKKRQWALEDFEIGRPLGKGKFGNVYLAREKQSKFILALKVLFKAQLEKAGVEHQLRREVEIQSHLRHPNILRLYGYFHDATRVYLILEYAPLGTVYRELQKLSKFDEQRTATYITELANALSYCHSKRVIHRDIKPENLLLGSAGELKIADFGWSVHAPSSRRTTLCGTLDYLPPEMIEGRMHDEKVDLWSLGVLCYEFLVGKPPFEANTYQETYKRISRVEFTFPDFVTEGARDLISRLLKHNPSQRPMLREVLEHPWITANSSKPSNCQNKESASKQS
BRSK2 (human), sequence (Q8IWQ3 whole entry, looked up): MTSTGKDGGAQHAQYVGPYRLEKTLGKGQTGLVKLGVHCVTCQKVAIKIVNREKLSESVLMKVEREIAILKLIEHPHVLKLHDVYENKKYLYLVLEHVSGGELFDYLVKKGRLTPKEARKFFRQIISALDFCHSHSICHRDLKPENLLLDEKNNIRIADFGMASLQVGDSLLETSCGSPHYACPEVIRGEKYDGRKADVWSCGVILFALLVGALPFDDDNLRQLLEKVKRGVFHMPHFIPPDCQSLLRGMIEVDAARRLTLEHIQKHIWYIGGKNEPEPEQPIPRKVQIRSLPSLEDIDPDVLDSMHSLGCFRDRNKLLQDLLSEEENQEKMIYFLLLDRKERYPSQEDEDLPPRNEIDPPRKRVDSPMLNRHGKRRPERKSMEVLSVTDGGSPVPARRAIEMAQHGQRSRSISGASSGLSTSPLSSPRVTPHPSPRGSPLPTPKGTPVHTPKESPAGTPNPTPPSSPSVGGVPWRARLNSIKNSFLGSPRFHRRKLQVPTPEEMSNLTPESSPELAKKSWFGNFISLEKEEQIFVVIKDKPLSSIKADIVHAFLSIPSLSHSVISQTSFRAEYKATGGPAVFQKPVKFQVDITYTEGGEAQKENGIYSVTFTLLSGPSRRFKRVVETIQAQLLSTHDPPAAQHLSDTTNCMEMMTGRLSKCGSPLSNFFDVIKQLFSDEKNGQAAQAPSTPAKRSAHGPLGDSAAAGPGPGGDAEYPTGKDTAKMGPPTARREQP
MAPKAPK3 (human), sequence (Q16644 whole entry, looked up): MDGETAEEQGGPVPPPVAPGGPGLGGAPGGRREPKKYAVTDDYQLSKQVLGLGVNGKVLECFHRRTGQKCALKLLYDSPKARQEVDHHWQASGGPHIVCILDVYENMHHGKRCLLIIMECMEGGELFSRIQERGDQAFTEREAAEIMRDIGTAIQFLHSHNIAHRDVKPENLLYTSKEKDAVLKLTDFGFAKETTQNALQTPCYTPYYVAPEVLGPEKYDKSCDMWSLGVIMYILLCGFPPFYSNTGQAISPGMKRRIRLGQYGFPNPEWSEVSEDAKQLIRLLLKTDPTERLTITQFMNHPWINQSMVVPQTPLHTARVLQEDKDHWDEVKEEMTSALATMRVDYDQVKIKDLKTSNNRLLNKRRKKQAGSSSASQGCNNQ

residual activity ([1]; compound 1.0 µM): 88% | residual activity ([1]; compound 10.0 µM): 91% | residual activity (AURKA (human); compound 1.0 µM): 113% | residual activity (AURKA (human); compound 10.0 µM): 100% | residual activity (BRSK1 (human); compound 1.0 µM): 84% | residual activity (BRSK1 (human); compound 10.0 µM): 94% | residual activity (BRSK2 (human); compound 1.0 µM): 98% | residual activity (BRSK2 (human); compound 10.0 µM): 105% | residual activity (BTK (human); compound 1.0 µM): 104% | residual activity (BTK (human); compound 10.0 µM): 107% | residual activity (CSK (human); compound 1.0 µM): 87% | residual activity (CSK (human); compound 10.0 µM): 97% | residual activity (CSNK1D (human); compound 1.0 µM): 102% | residual activity (CSNK1D (human); compound 10.0 µM): 97% | residual activity (EEF2K (human); compound 1.0 µM): 94% | residual activity (EEF2K (human); compound 10.0 µM): 82% | residual activity (EPHA4 (human); compound 1.0 µM): 110% | residual activity (EPHA4 (human); compound 10.0 µM): 124% | residual activity (ERBB4 (human)): 106% | residual activity (FGFR1 (human)): 109% | residual activity (GSK3B (human)): 92% | residual activity (HIPK1 (human); compound 1.0 µM): 92% | residual activity (HIPK1 (human); compound 10.0 µM): 101% | residual activity (IKBKB (human); compound 1.0 µM): 100% | residual activity (IKBKB (human); compound 10.0 µM): 106% | residual activity (MAP2K2 (human); compound 1.0 µM): 83% | residual activity (MAP2K2 (human); compound 10.0 µM): 81% | residual activity (MAP2K6 (human); compound 1.0 µM): 93% | residual activity (MAP2K6 (human); compound 10.0 µM): 100% | residual activity (MAP3K1 (human); compound 1.0 µM): 101% | residual activity (MAP3K1 (human); compound 10.0 µM): 97% | residual activity (MAP3K5 (human); compound 1.0 µM): 102% | residual activity (MAP3K5 (human); compound 10.0 µM): 101% | residual activity (MAPK3 (human); compound 1.0 µM): 90% | residual activity (MAPK3 (human); compound 10.0 µM): 94% | residual activity (MAPK8 (human); compound 1.0 µM): 99% | residual activity (MAPK8 (human); compound 10.0 µM): 106% | residual activity (MAPK9 (human); compound 1.0 µM): 100% | residual activity (MAPK9 (human); compound 10.0 µM): 102% | residual activity (MAPKAPK3 (human); compound 1.0 µM): 94% | residual activity (MAPKAPK3 (human); compound 10.0 µM): 86% | residual activity (MKNK2 (human); compound 1.0 µM): 80% | residual activity (MKNK2 (human); compound 10.0 µM): 89% | residual activity (NEK6 (human); compound 1.0 µM): 105% | residual activity (NEK6 (human); compound 10.0 µM): 96% | residual activity ([2]; compound 1.0 µM): 101% | residual activity ([2]; compound 10.0 µM): 103% | residual activity (PAK7 (human); compound 1.0 µM): 86% | residual activity (PAK7 (human); compound 10.0 µM): 77% | residual activity (PLK1 (human); compound 1.0 µM): 104% | residual activity (PLK1 (human); compound 10.0 µM): 96% | residual activity (RPS6KA3 KD1 KD2 (human); compound 1.0 µM): 93% | residual activity (RPS6KA3 KD1 KD2 (human); compound 10.0 µM): 101% | residual activity (RPS6KA5 KD1 KD2 (human)): 91% | residual activity (SRPK1 (human); compound 1.0 µM): 104% | residual activity (SRPK1 (human); compound 10.0 µM): 104% | residual activity ([3]; compound 1.0 µM): 116% | residual activity ([3]; compound 10.0 µM): 112% | residual activity (TBK1 (human); compound 1.0 µM): 95% | residual activity (TBK1 (human); compound 10.0 µM): 102%
SMILES: Nc1cccc2c1CN(C1CCC(=O)NC1=O)C2=O (configuration not stated)
residual activity (MAPK15 (human); compound 1.0 µM): 92% | residual activity (MAPK15 (human); compound 10.0 µM): 98%
